Laboratory results reported in PMC4747407 (Oncotarget, 2015).
“Also recorded” adds a separate entry of the source.

Assays:
[1] = system: PARP3 or PARPs 6–16; test: 32P-NAD+ auto-PARylation selectivity screen; assay type: biochemical, human; conditions: 32P-NAD+ auto-PARylation screen
Experimental: (§1) Samples were analyzed via phosphorimaging.

[2] = biological target: TNKS1/2; test: TNKS1/2 inhibition, summary over the enzyme assays; assay type: biochemical, human; conditions: range over the assays used
Experimental: as §1

[3] = biological target: T1, PARP1 (Gallus gallus, UniProt P26446); test: PARP trapping: western blot of chromatin-bound fraction of MMS-damaged DT40 cells; assay type: cell-based, avian; conditions: 0.05% MMS, inhibitor 0.1–10 μmol/L, 30 min
T1 construct: endogenous in cells; host or cells: DT40 cells
Experimental: Following binding of appropriate secondary antibodies labeled with IRDye® (LI-COR), image analysis and quantitation of blots was performed with Image Studio software for the LI-COR Odyssey system (version 2.1.10).

[4] = system: B16-F10 mouse melanoma isografts; test: B16-F10 mouse melanoma isograft model, combination with TMZ; assay type: in vivo
Experimental: All studies were performed according to IACUC approved protocols. The general health of mice was monitored daily.
TMZ combination in B16-F10 isograft model: female C57BL/6 mice were inoculated subcutaneously with B16-F10 cells (2 × 10^5). Following randomization by body weight, drug treatment was initiated 1 day post-inoculation. […] TMZ was administered daily on days 1 to 5 at 50 mg/kg as a single agent or in combination. […] The control group was treated with vehicle (0.5% methyl cellulose in water). E7449 or vehicle was administered first and when dosing of all animals was complete TMZ was administered to animals receiving the combination.

[5] = system: PARP activity in MDA-MB-436 tumor tissue; test: Pharmacodynamic PARP inhibition (PAR ELISA) in MDA-MB-436 tumor lysates; assay type: in vivo, mouse
Experimental: Control group (10 mice) were treated with vehicle (0.5% methyl cellulose in water). Mice were euthanized and tumors were harvested at 1, 6, 12, 24 and 36 hours post treatment (5 mice per treatment per time point). Individual tumors were removed and flash frozen in liquid nitrogen for PAR analysis. PARP inhibition was also evaluated in tumors from NCI-H460 human lung cancer subcutaneous xenografts. Control group animals (24 mice) were treated with vehicle (0.5% methyl cellulose). […] Mice were euthanized and tumors were harvested at 0.25, 1, 6, 12, 24 and 36 hours post-treatment. PAR levels were determined by ELISA using the procedure provided by Trevigen and comparing to a PAR standard curve. Protein concentration of tumor lysates was determined using the BCA assay (Thermo Scientific). Results were converted from pg PAR/assay well to ng PAR/mg protein. Data was pooled from multiple experiments. The percent of control for each time point was calculated by using an average of all control replicates from that experiment.

[6] = system: NCI-H460 human lung cancer xenografts; test: NCI-H460 lung cancer xenograft model, antitumor activity; assay type: in vivo, mouse
[7] = system: SW480 cells; test: Western blot of Wnt/β-catenin pathway proteins in SW480 cells; assay type: cell-based, human; conditions: 10 μmol/L, 24 h
Experimental: (§2) SW480, DLD-1 (Wnt-dependent) or RKO (Wnt-independent) cells were plated in 6-well plates and incubated overnight. Cells were treated with E7449, olaparib or XAV939 and incubated for various time periods prior to processing by SDS PAGE and western blot analysis. […] Following binding of appropriate secondary antibodies labeled with IRDye® (LI-COR), image analysis was performed with Image Studio software for the LI-COR Odyssey system (version 2.1.10).

[8] = system: DLD-1 cells; test: Western blot of Wnt/β-catenin pathway proteins in DLD-1 cells; assay type: cell-based, human; conditions: 24 h
Experimental: as §2

[9] = system: SW480 cells; test: Gene expression profiling of Wnt-related genes (TLDA qPCR) in SW480 cells; assay type: cell-based, human; conditions: 30 μmol/L, 72 h
Experimental: Gene expression profiling was performed using a custom designed TaqMan® low density array (TLDA). Total RNA was isolated from cell lines using RNeasy Mini Kit (Qiagen) and from xenograft tumor FFPE tissue using RecoverAll Total Nucleic Acid Isolation (Ambion). Human and mouse, real-time qPCR TLDAs (384-well micro fluidic card) were designed with genes selected based on their involvement in Wnt signalling (see supplementary Tables 2 and 3 for lists of genes on TLDAs). cDNA was generated from total RNA using High Capacity cDNA Reverse Transcription kit (Life Technologies) or SuperScript® VILO™ Master Mix (Life Technologies). 100 ng cDNA was combined with TaqMan® Gene Expression Master Mix (Life Technologies) for the cell lines and TaqMan® Advanced FAST Master Mix (Life Technologies) for the xenograft tissue for each port (in duplicate). TLDAs were run based on recommended cycling times for each master mix. Ct values were calculated and imported into GeneData Analyst for further analysis. To calculate the ΔCts, gene expression was normalized to several housekeeping genes. Relative fold change was calculated by comparison to the DMSO or vehicle-treated controls for each sample. A student's t-test was used to calculate P-values and hierarchical clustering used Manhattan distance and complete linkage plotting of selected significant genes to generate heat maps.

[10] = system: Wnt-mediated hair re-growth; test: Re-growth of hair after depilation in C57BL/6 mice; assay type: in vivo, mouse; conditions: 30, 100 or 300 mg/kg oral once daily for 12 days
From the text: Re-growth of hair was monitored and recorded by photography.

[11] = system: Wnt1 (int-1) mammary tumors; test: Wnt1 subcutaneous mammary tumor model
Experimental: All studies were performed according to IACUC approved protocols. The general health of mice was monitored daily. Tumor volume was determined by caliper measurements (mm), using the formula (l x w^2)/2 = mm^3, where l and w refer to the larger and smaller perpendicular dimensions collected at each measurement. Tumor dimensions were recorded twice per week starting when tumors reached an approximate size of 100 to 150 mm^3. Body weights were recorded twice per week and relative body weight was calculated as follows: Relative body weight = (body weight on day of measurement/body weight on first day of treatment).
Tumor pieces cut to approximately 2 mm^3 in size were injected subcutaneously in female nude mice. Treatment was initiated approximately 9–10 days post-implantation of mice.

[12] = Gastrointestinal toxicity in preclinical studies; assay type: in vivo
[13] = system: wild type DT40 cells; test: cells; conditions: DT40, 48 h, read-out: IC50, cell proliferation, wild type DT40 cells
Experimental: Proliferation assays were performed in a panel of 32 isogenic DT40 cell lines, in which each line was deficient in a distinct DNA repair gene [31]. Cells were seeded and incubated with test compound at various concentrations for 2–3 days (~ 8 cell cycles). […] Each experiment was conducted in duplicate and a minimum of 3 separate experiments were performed. […] For proliferation assays cells were plated at low density in 96 well plates. […] Cell growth was assessed using the CellTiter-Glo® cell viability assay (Promega, Cat# G7573). Each experiment was conducted in duplicate and a minimum of 3 separate experiments were performed.

[14] = system: P-glycoprotein; parameters: method as in PMID 22246237; conditions: cited from earlier work
[15] = small phase 1 study; cited from earlier work
[16] = E7449 10, 30, 100 mg/kg + TMZ 50 mg/kg

T1 sequence (P26446 whole entry): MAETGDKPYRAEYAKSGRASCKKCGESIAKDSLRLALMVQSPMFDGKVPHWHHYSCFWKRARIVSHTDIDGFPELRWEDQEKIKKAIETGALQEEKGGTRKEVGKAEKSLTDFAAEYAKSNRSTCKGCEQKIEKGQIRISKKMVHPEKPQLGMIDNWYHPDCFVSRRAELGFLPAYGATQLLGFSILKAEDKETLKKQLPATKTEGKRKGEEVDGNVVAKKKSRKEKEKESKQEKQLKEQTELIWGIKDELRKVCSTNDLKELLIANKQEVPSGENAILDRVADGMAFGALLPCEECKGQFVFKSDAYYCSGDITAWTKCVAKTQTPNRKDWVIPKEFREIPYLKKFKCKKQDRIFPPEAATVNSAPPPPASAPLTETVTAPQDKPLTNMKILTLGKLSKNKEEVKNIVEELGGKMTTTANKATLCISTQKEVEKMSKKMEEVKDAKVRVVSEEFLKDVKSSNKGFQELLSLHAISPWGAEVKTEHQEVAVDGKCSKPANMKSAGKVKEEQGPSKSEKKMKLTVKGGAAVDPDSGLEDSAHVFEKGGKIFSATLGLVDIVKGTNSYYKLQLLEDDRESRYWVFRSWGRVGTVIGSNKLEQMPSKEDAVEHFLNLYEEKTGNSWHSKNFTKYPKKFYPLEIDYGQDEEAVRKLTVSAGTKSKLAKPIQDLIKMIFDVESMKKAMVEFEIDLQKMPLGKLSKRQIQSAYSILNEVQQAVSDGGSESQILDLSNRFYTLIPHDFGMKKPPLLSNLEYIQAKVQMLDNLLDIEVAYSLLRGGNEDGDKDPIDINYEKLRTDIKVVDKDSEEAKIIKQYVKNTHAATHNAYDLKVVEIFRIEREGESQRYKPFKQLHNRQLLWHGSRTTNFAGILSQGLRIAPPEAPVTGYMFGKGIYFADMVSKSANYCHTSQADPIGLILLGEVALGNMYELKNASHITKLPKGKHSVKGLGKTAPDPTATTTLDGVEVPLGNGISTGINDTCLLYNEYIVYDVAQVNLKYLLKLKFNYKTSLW

With `O=c1[nH]nc2c3c(cccc13)N=C(CN1Cc3ccccc3C1)N2` [E7449, 8-(isoindolin-2-ylmethyl)-2,9-dihydro-3H-pyridazino[3,4,5-de]quinazolin-3-one] as the molecule, how does the “inhibitory activity on PARP3 or PARPs 6–16” value [1] read?
The value was “Significant inhibitory activity was not observed”.

And the IC50 [2]?
The IC50 was 0.05 to 0.12 µM.

And the “PARP1 trapping onto chromatin” value [3]?
The value was “binding of PARP1 to chromatin in a dose responsive manner”.

What about the “growth of subcutaneous tumors, single agent” value ([4]; E7449 100 mg/kg or TMZ 50 mg/kg, oral once daily) of the same molecule?
The value was “moderately inhibited”.

And the “animal lethality, combination with TMZ” value [4, 16]?
Its value is “No animal lethality occurred”.

What about the “body weight, combination with TMZ” value [4, 16] of the same molecule?
Its value is “body weight loss was observed in all 3 combination groups”.

What about the “tumor growth inhibition, combination with TMZ” value ([4]; E7449 10, 30 and 100 mg/kg + TMZ 50 mg/kg, oral) of the same molecule?
The value was “significantly enhanced tumor growth inhibition”.

What about the “time of partial rebound of PARP activity” value ([5]; single dose 30 mg/kg) of the same molecule?
Its value is at most 12 h.

What about the “duration of significant PARP inhibition in tumor” value ([5]; single dose 100 mg/kg) of the same molecule?
Its value is “at least 12 hours”.

What about the “time of recovery of PARP activity to basal levels” value ([5]; single dose 100 mg/kg) of the same molecule?
Its value is at most 24 h.

What about the antitumor activity [6] of the same molecule?
The antitumor activity was “No antitumor activity”.

And the “Cyclin D1 protein levels” value [7]?
Its value is “modest decrease”.

And the axin2 protein level [7]?
The axin2 protein level was “significant increase”.

What about the “reduction of active (non-phosphorylated) β-catenin level” value [7] of the same molecule?
Its value is ~ 70%.

What about the “reduction of total β-catenin level” value [7] of the same molecule?
The value was about 50%.

What about the “effect on levels of β-catenin” value [8] of the same molecule?
Its value is “robust effect on levels of β-catenin was not observed”.

What about the “number of Wnt-related genes with significantly altered expression” value [9] of the same molecule?
The value was 30 genes.

What about the hair re-growth [10] of the same molecule?
Its hair re-growth is “significantly delayed”.

What about the “effect of adding E7449 to E6201 on body weight loss” value ([11]; E7449 100 mg/kg + E6201 40 mg/kg) of the same molecule?
The value was “did not impact body weight loss”.

And the “tumor growth, single agent” value ([11]; E7449 100 mg/kg once daily, Wnt-C59 10 mg/kg once daily, E6201 40 mg/kg i.v. Q4Dx3)?
The value was “did not inhibit tumor growth; also recorded: No antitumor effect”.

What about the “antitumor activity, combination of E7449 and E6201” value ([11]; E7449 100 mg/kg oral once daily + E6201 40 mg/kg i.v. Q4Dx3) of the same molecule?
The value was “Antitumor activity was enhanced; also recorded: synergistic inhibition of tumor growth”.

What about the “tolerability (body weight loss), single agent” value ([11]; E7449 100 mg/kg, Wnt-C59 10 mg/kg once daily) of the same molecule?
The value was “well tolerated with minimal toxicity”.

What about the gastrointestinal toxicity [12] of the same molecule?
The gastrointestinal toxicity was “no gastrointestinal toxicity was observed”.

And the IC50 [13]?
Its IC50 is 3.2 µM.

And the P-glycoprotein substrate [14]?
The P-glycoprotein substrate was “not a substrate for P-glycoprotein”.

What about the dose-limiting toxicity [15] of the same molecule?
Its dose-limiting toxicity is “fatigue”.

And the “tolerability in cancer patients” value [15]?
The value was “generally well tolerated”.
